In patent US10544143B2, “4-azaindole compounds” (BRISTOL-MYERS SQUIBB COMPANY, priority 2017, dated 2020):

Experiments:
[1] = target: human TLR9 (Homo sapiens (Human), UniProt Q9NR96); test: TLR9 inhibition reporter assay (HEK-Blue SEAP); conditions: read-out: TLR9 IC50; HEK-Blue cells overexpressing human TLR9, SEAP reporter, ODN2006 5 nM;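 further: SEAP driven by an IFN-β minimal promoter with NF-κB and AP-1 sites, read after 22 h, compounds dosed 0.05 nM–50 µM, inhibition scaled between agonist plus DMSO and reference-inhibitor wells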
Chain of human TLR9 (Q9NR96 26-1032): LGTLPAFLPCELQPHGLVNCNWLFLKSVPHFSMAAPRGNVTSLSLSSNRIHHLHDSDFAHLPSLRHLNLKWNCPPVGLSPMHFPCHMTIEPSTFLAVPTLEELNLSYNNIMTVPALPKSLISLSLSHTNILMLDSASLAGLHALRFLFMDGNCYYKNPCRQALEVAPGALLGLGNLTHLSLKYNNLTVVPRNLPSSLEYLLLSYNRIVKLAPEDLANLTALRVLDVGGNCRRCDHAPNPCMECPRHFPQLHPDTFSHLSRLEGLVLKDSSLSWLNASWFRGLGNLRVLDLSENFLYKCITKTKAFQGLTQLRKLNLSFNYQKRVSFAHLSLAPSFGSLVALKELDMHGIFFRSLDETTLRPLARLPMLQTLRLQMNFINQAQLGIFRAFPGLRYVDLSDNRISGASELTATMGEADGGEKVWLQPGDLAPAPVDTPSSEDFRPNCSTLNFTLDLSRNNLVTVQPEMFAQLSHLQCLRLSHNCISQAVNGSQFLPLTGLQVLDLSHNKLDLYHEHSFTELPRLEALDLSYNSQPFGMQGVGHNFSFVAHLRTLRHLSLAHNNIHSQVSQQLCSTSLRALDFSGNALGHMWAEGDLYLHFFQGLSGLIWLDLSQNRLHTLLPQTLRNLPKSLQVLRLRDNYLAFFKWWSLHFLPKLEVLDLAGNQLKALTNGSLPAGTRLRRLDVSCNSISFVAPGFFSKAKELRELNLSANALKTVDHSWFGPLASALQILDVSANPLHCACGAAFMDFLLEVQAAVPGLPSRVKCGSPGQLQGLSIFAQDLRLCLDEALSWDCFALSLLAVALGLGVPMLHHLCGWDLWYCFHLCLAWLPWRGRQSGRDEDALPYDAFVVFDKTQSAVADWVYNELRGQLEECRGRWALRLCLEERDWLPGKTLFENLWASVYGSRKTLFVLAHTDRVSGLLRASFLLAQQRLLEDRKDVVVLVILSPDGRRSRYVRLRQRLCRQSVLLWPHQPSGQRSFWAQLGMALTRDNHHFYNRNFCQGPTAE

[2] = target: human TLR7 (Homo sapiens (Human), UniProt Q9NYK1); test: TLR7 inhibition reporter assay (HEK-Blue SEAP); assay type: cell-based; conditions: HEK-Blue cells overexpressing human TLR7, SEAP reporter, gardiquimod 7.5 μM
Chain of human TLR7 (Q9NYK1 27-1049): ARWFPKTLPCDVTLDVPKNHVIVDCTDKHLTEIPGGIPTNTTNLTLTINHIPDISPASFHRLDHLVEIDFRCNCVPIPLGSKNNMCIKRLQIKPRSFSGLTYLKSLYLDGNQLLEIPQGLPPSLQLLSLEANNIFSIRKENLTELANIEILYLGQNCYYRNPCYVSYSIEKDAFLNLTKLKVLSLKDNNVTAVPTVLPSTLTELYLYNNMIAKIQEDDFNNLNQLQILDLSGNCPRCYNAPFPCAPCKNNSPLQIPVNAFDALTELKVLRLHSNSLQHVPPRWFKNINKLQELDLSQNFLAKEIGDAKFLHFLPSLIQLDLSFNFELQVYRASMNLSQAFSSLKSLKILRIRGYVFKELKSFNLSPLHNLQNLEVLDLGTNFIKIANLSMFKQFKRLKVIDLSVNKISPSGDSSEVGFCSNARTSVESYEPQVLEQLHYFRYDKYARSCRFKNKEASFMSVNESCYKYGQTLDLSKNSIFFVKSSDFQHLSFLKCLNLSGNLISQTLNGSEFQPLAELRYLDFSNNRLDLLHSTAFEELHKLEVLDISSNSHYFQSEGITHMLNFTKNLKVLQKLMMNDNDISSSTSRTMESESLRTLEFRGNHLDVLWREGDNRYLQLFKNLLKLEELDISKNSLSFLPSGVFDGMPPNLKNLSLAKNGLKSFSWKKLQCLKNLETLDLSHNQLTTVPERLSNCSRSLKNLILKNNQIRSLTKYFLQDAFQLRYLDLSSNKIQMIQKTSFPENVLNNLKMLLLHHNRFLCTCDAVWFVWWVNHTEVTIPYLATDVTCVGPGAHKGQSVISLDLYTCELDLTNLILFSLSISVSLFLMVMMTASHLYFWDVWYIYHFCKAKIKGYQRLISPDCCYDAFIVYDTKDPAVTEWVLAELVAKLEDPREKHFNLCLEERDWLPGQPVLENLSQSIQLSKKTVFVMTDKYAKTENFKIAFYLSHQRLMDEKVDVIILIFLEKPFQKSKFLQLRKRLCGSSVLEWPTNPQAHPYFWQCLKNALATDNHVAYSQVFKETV

[3] = target: human TLR8 (Homo sapiens (Human), UniProt Q9NR97); test: TLR8 inhibition reporter assay (HEK-Blue SEAP); conditions: read-out: TLR8 IC50; HEK-Blue cells overexpressing human TLR8, SEAP reporter, R848 15.9 μM;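 further: SEAP driven by IFN-β minimal promoter carrying NF-κB and AP-1 sites, compounds dosed 0.05 nM to 50 µM for 22 h, inhibition scaled between agonist-plus-DMSO and reference-inhibitor wells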
Chain of human TLR8 (Q9NR97 27-1041): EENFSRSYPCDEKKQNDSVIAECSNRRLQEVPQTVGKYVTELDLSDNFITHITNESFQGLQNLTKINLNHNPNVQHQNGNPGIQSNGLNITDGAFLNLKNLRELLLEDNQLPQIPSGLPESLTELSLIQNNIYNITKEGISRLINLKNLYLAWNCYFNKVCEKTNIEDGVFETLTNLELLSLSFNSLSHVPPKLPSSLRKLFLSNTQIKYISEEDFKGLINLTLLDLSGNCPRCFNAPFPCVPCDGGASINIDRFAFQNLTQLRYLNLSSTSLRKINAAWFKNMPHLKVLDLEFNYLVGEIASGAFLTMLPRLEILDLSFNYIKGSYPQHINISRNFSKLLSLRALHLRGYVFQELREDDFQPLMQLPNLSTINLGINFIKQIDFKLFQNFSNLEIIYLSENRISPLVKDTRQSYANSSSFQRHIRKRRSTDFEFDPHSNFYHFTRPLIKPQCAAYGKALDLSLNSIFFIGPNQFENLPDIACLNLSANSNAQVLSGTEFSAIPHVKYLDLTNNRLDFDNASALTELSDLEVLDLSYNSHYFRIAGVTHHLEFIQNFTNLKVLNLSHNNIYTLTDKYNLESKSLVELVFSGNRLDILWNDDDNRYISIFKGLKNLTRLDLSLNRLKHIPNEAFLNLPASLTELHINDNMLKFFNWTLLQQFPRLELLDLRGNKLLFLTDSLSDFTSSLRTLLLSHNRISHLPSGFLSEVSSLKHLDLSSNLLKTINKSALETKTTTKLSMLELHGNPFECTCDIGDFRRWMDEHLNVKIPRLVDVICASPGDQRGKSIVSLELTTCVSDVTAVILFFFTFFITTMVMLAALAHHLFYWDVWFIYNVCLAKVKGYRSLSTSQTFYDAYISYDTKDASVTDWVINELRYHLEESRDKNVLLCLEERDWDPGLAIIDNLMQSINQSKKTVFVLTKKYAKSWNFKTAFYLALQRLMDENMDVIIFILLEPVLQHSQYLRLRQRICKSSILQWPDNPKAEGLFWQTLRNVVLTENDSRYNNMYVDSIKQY

SMILES | IC50 [1] | IC50 [2] | IC50 [3]
Cc1cc2[nH]c(-c3cc(C)c4ncnn4c3)c(C(C)C)c2nc1C1CCN(C2COC2)CC1 [Example 578] | 4.19 µM | 0.00053 µM | 0.287 µM
Cc1cc2[nH]c(-c3cc(C)c4ncnn4c3)c(C(C)C)c2nc1C1CCN(CC(=O)N(C)C)CC1 [Example 581] | 4.92 µM | 0.0003 µM | 0.079 µM
Cc1cc(-c2[nH]c3cc(F)c(C4CCN(CCS(C)(=O)=O)CC4)nc3c2C(C)C)cn2ncnc12 [Example 582] | 7.46 µM | 0.00099 µM | 0.012 µM
Cc1cc(-c2[nH]c3cc(F)c(C4CCN(C5COC5)CC4)nc3c2C(C)C)cn2ncnc12 [Example 588] | 16.1 µM | 0.0023 µM | 0.042 µM
COc1cc(-c2[nH]c3ccc(OCC4CCN(C)CC4)nc3c2C(C)C)cn2ncnc12 [Example 590, 6-(3-isopropyl-5-((1-methylpiperidin-4-yl)methoxy)-1H-pyrrolo[3,2-b]pyridin-2-yl)-8-methoxy-[1,2,4]triazolo[1,5-a]pyridine] | 3.55 µM | 0.003 µM | 0.0047 µM
Cc1cc(-c2[nH]c3ccc(OC4CCN(C)CC4)nc3c2C(C)C)cn2ncnc12 [Example 594, 6-(3-isopropyl-5-((1-methylpiperidin-4-yl)oxy)-1H-pyrrolo[3,2-b]pyridin-2-yl)-8-methyl-[1,2,4]triazolo[1,5-a]pyridine] | 7.91 µM | 0.0039 µM | 0.016 µM
COc1cc(-c2[nH]c3ccc(OC4CN(C5CCOCC5)C4)nc3c2C(C)C)cn2ncnc12 [Example 595, 6-(3-isopropyl-5-((1-(tetrahydro-2H-pyran-4-yl)azetidin-3-yl)oxy)-1H-pyrrolo[3,2-b]pyridin-2-yl)-8-methoxy-[1,2,4]triazolo[1,5-a]pyridine] | 10.9 µM | 0.122 µM | > 3.12 µM
COc1cc(-c2[nH]c3ccc(OC4CN(C)C4)nc3c2C(C)C)cn2ncnc12 [Example 596, 6-(3-isopropyl-5-((1-methylazetidin-3-yl)oxy)-1H-pyrrolo[3,2-b]pyridin-2-yl)-8-methoxy-[1,2,4]triazolo[1,5-a]pyridine] | 3.2 µM | 0.013 µM | 0.067 µM
COc1cc(-c2[nH]c3ccc(OCC4CN(CC(C)(C)O)C4)nc3c2C(C)C)cn2ncnc12 [Example 599] | 3.05 µM | 0.0027 µM | 0.0048 µM
COc1ccc2[nH]c(-c3cc(OC)c4ncnn4c3)c(C(C)C)c2n1 [Example 601, 6-(3-isopropyl-5-methoxy-1H-pyrrolo[3,2-b]pyridin-2-yl)-8-methoxy-[1,2,4]triazolo[1,5-a] pyridine] | > 50 µM | 0.046 µM | 0.046 µM
COc1cc(-c2[nH]c3ccc(OC4CCN(C(C)C)CC4)nc3c2C(C)C)cn2ncnc12 [Example 603, 6-(3-isopropyl-5-((1-isopropylpiperidin-4-yl)oxy)-1H-pyrrolo[3,2-b]pyridin-2-yl)-8-methoxy-[1,2,4]triazolo[1,5-a]pyridine] | 1.19 µM | 0.0015 µM | 0.0052 µM
COc1cc(-c2[nH]c3ccc(OCC4CCN(CCS(C)(=O)=O)CC4)nc3c2C(C)C)cn2ncnc12 [Example 604, 6-(3-isopropyl-5-((1-(2-(methylsulfonyl)ethyl)piperidin-4-yl)methoxy)-1H-pyrrolo[3,2-b]pyridin-2-yl)-8-methoxy-[1,2,4]triazolo[1,5-a]pyridine] | 5.91 µM | 0.0028 µM | 0.0025 µM
COc1cc(-c2[nH]c3ccc(OC4CCN(C5CCOCC5)CC4)nc3c2C(C)C)cn2ncnc12 [Example 607, 6-(3-isopropyl-5-((1-(tetrahydro-2H-pyran-4-yl)piperidin-4-yl)oxy)-1H-pyrrolo[3,2-b]pyridin-2-yl)-8-methoxy-[1,2,4]triazolo[1,5-a]pyridine] | 1.14 µM | 0.0021 µM | 0.0026 µM
COc1cc(-c2[nH]c3ccc(OCC4CN(C)C4)nc3c2C(C)C)cn2ncnc12 [Example 608, 6-(3-isopropyl-5-((1-methylazetidin-3-yl)methoxy)-1H-pyrrolo[3,2-b]pyridin-2-yl)-8-methoxy-[1,2,4]triazolo[1,5-a]pyridine] | 1.71 µM | 0.0011 µM | 0.0061 µM
COc1cc(-c2[nH]c3ccc(OC4CCC(N(C)C)CC4)nc3c2C(C)C)cn2ncnc12 (stereo not drawn) [Example 610, 4-((3-isopropyl-2-(8-methoxy-[1,2,4]triazolo[1,5-a]pyridin-6-yl)-1H-pyrrolo[3,2-b]pyridin-5-yl)oxy)-N,N-dimethylcyclohexan-1-amine] | 1.77 µM | 0.0015 µM | 0.014 µM

Next, values leading:

IC50 [1] | IC50 [2] | IC50 [3] | SMILES
1.84 µM | 0.00039 µM | 0.079 µM | COc1cc(-c2[nH]c3cc(C)c(C4CCN(C5COC5)CC4)nc3c2C(C)C)cn2ncnc12 [Example 579]
1.79 µM | 0.00041 µM | 0.0087 µM | Cc1cc(-c2[nH]c3cc(F)c(C4CCN(CC(=O)N(C)C)CC4)nc3c2C(C)C)cn2ncnc12 [Example 580]
1.55 µM | 0.00032 µM | 0.0051 µM | COc1cc(-c2[nH]c3cc(F)c(C4CCN(CC(=O)N(C)C)CC4)nc3c2C(C)C)cn2ncnc12 [Example 583]
2.01 µM | 0.00024 µM | 0.029 µM | COc1cc(-c2[nH]c3cc(C)c(C4CCN(CC(=O)N(C)C)CC4)nc3c2C(C)C)cn2ncnc12 [Example 584]
1.84 µM | 0.00046 µM | 0.0086 µM | Cc1cc(-c2[nH]c3cc(F)c(C4CCN(C(=O)CN(C)C)CC4)nc3c2C(C)C)cn2ncnc12 [Example 585]
2.9 µM | 0.00075 µM | 0.098 µM | Cc1cc2[nH]c(-c3cc(C)c4ncnn4c3)c(C(C)C)c2nc1C1CCN(C(=O)CN(C)C)CC1 [Example 586]
1.41 µM | 0.00031 µM | 0.027 µM | COc1cc(-c2[nH]c3cc(C)c(C4CCN(CC(C)(C)O)CC4)nc3c2C(C)C)cn2ncnc12 [Example 587]
1.06 µM | 0.00025 µM | 0.062 µM | COc1cc(-c2[nH]c3cc(C)c(C4CCN(C5CCOCC5)CC4)nc3c2C(C)C)cn2ncnc12 [Example 589]
2.85 µM | 0.0048 µM | 0.0077 µM | COc1cc(-c2[nH]c3ccc(OCC4CCN(C5CCOCC5)CC4)nc3c2C(C)C)cn2ncnc12 [Example 591, 6-(3-isopropyl-5-((1-(tetrahydro-2H-pyran-4-yl)piperidin-4-yl)methoxy)-1H-pyrrolo[3,2-b]pyridin-2-yl)-8-methoxy-[1,2,4]triazolo[1,5-a]pyridine]
2.24 µM | 0.0029 µM | 0.0074 µM | COc1cc(-c2[nH]c3ccc(OCC4CN(C(C)C)C4)nc3c2C(C)C)cn2ncnc12 [Example 592, 6-(3-isopropyl-5-((1-isopropylazetidin-3-yl)methoxy)-1H-pyrrolo[3,2-b]pyridin-2-yl)-8-methoxy-[1,2,4]triazolo[1,5-a]pyridine]
0.974 µM | 0.0014 µM | 0.0026 µM | CCCN1CCC(Oc2ccc3[nH]c(-c4cc(OC)c5ncnn5c4)c(C(C)C)c3n2)CC1 [Example 593, 6-(3-isopropyl-5-((1-propylpiperidin-4-yl)oxy)-1H-pyrrolo[3,2-b]pyridin-2-yl)-8-methoxy-[1,2,4]triazolo[1,5-a]pyridine]
0.918 µM | 0.0013 µM | 0.0012 µM | COc1cc(-c2[nH]c3ccc(OCC4CCN(CC(C)(C)O)CC4)nc3c2C(C)C)cn2ncnc12 [Example 597, 1-(4-(((3-isopropyl-2-(8-methoxy-[1,2,4]triazolo[1,5-a]pyridin-6-yl)-1H-pyrrolo[3,2-b]pyridin-5-yl)oxy)methyl)piperidin-1-yl)-2-methylpropan-2-ol]
0.949 µM | 0.00081 µM | 0.0031 µM | COc1cc(-c2[nH]c3ccc(OCC4CCN(C(C)C)CC4)nc3c2C(C)C)cn2ncnc12 [Example 598, 6-(3-isopropyl-5-((1-isopropylpiperidin-4-yl)methoxy)-1H-pyrrolo[3,2-b]pyridin-2-yl)-8-methoxy-[1,2,4]triazolo[1,5-a]pyridine]
2.05 µM | 0.00075 µM | 0.0062 µM | COc1cc(-c2[nH]c3ccc(OC4CCN(C)CC4)nc3c2C(C)C)cn2ncnc12 [Example 600, 6-(3-isopropyl-5-((1-methylpiperidin-4-yl)oxy)-1H-pyrrolo[3,2-b]pyridin-2-yl)-8-methoxy-[1,2,4]triazolo[1,5-a]pyridine]
1.43 µM | 0.0012 µM | 0.0068 µM | COc1cc(-c2[nH]c3ccc(OCC4CCN(CC(=O)N(C)C)CC4)nc3c2C(C)C)cn2ncnc12 [Example 602, 2-(4-(((3-isopropyl-2-(8-methoxy-[1,2,4]triazolo[1,5-a]pyridin-6-yl)-1H-pyrrolo[3,2-b]pyridin-5-yl)oxy)methyl)piperidin-1-yl)-N,N-dimethylacetamide]
1.71 µM | 0.0023 µM | 0.0039 µM | CCCN1CCC(COc2ccc3[nH]c(-c4cc(OC)c5ncnn5c4)c(C(C)C)c3n2)CC1 [Example 606, 6-(3-isopropyl-5-((1-propylpiperidin-4-yl)methoxy)-1H-pyrrolo[3,2-b]pyridin-2-yl)-8-methoxy-[1,2,4]triazolo[1,5-a]pyridine]
2.72 µM | 0.0026 µM | 0.023 µM | COc1cc(-c2[nH]c3ccc(OC4CCN(CC(=O)N(C)C)CC4)nc3c2C(C)C)cn2ncnc12 [Example 609, 2-(4-((3-isopropyl-2-(8-methoxy-[1,2,4]triazolo[1,5-a]pyridin-6-yl)-1H-pyrrolo[3,2-b]pyridin-5-yl)oxy)piperidin-1-yl)-N,N-dimethylacetamide]
